Test results: ChEMBL document CHEMBL1201862, “PubChem BioAssay data set” (2004)
Active and inactive are the calls of the source.

Columns and labels:
[1] = target: Glyceraldehyde-3-phosphate dehydrogenase (Homo sapiens, UniProt P04406)
Large T antigen = Large T antigen (Simian virus 40, UniProt P03070); assay type: functional, Betapolyomavirus macacae;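 further: Confirmatory-stage PubChem screen for compounds that inhibit SV40 T antigen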
H4 = assay: Luminescence Cell-Based Dose Response HTS to Identify Activators of 5'UTR Stem-Loop Driven Prion Protein mRNA Translation in H4 Neuroglioblastoma Cells. [Related pubchem assays: 1829 (Project Summary), 1814 (Primary HTS)]; assay type: functional; conditions: Homo sapiens
[2] = Luminescence Cell-Based Dose Confirmation HTS to Identify Activators of 5'UTR Stem-Loop Driven Alpha-Synuclein mRNA Translation in H4 Neuroglioblastoma Cells. [Related pubchem assays: 1829 (Project Summary), 1814 (Primary HTS)]; assay type: functional
[3] = target: T1, Polyadenylate-binding protein 1 (Homo sapiens, UniProt P11940); assay: MLLE binding blockers, Cy5 peptide tracer – biochemical, fluorescence polarization, Cy5-PAM2 peptide, secondary, miRNA deadenylation inhibitor project, dose response (AID 602260); assay type: functional; conditions: read-out: IC50_Mean
T1 sequence (P11940 whole entry): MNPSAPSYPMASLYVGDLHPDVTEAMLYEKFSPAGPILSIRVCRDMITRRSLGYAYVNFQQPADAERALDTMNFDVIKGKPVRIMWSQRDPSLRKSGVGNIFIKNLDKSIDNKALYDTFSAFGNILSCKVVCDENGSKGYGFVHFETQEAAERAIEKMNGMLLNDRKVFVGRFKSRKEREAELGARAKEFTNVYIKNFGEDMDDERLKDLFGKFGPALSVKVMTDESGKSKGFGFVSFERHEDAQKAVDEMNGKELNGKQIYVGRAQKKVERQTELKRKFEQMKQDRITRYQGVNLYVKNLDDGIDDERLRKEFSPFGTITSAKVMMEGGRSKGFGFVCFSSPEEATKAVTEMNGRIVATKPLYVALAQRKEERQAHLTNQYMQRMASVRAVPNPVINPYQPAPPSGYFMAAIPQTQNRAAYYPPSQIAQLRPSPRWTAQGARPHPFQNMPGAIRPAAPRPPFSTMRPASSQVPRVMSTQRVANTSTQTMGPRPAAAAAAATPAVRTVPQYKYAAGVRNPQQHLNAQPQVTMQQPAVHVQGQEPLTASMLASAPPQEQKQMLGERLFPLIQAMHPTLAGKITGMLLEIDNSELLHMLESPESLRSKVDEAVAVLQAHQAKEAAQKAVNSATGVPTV

[4] = Luminescence Cell-Based Dose Response HTS to Identify Activators of Luciferase Translation or Activity in H4 […] Cells. [Related pubchem assays: 1829 (Project Summary), 1814 (Primary HTS)]; assay type: functional
[5] = target: T1, Polyadenylate-binding protein 1; assay: MLLE domain peptide-binding blockers, IC50 – biochemical, fluorescence polarization, FITC-PAM2 peptide, dose response (AID 602259); assay type: functional; conditions: read-out: IC50_Mean
Leucine aminopeptidase = target: T2, Leucine aminopeptidase (Plasmodium falciparum 3D7, UniProt Q8IL11); assay: P. falciparum M17LAP inhibitors, primary screen, biochemical, fluorogenic H-Leu-NHMec substrate, 1536-well (AID 1619); assay type: functional
T2 sequence (Q8IL11 whole entry): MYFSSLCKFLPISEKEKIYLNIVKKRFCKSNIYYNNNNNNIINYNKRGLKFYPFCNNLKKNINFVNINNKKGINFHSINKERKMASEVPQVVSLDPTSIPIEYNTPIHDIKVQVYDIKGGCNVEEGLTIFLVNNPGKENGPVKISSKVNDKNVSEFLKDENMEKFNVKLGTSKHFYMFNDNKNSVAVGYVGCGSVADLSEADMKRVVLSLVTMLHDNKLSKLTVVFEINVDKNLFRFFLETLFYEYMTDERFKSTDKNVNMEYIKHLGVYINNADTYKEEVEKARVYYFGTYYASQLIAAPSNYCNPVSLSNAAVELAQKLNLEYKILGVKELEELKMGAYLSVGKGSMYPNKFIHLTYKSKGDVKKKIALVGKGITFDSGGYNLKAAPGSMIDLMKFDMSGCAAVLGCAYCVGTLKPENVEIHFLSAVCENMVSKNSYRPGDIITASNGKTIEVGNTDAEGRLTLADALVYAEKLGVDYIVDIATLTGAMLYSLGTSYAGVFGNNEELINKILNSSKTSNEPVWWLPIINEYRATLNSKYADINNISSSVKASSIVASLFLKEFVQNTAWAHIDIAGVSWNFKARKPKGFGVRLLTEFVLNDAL

Protein RecA = target: T3, Protein RecA (Mycobacterium tuberculosis, UniProt P9WHJ3); assay: Fluorescence Cell-Free Homogeneous Dose Retest to Identify Inhibitors of RecA-Intein Splicing Activity. [Related pubchem assays (depositor defined):AID2097, AID2223, AID489010, AID492950]; assay type: functional
T3 sequence (P9WHJ3 whole entry): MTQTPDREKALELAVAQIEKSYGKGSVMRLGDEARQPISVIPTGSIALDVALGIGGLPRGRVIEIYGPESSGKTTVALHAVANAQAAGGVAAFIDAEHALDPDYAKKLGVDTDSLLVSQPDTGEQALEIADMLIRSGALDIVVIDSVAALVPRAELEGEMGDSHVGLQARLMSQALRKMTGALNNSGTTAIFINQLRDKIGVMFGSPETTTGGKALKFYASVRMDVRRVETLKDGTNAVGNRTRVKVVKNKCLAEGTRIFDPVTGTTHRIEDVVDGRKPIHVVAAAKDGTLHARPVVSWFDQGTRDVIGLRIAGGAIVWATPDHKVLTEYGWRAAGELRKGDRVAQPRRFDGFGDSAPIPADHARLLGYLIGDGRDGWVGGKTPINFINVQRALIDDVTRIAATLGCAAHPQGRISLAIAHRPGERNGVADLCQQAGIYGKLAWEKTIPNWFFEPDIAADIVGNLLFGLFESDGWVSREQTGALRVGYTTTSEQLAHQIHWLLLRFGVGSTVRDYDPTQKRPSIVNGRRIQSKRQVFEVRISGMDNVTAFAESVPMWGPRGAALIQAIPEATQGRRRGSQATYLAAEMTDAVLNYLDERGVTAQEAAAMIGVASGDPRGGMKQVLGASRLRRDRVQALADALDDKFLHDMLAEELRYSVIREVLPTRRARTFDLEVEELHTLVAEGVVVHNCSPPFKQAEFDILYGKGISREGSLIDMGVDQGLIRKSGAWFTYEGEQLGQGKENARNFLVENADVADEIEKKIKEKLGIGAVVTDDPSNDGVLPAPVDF

[6] = target: T4, Replicative DNA helicase DnaB (Mycobacterium tuberculosis, UniProt P9WMR3); assay: DnaB intein splicing inhibitors, dose response, biochemical, cell-free fluorescence (AID 449749); assay type: functional
T4 sequence (P9WMR3 whole entry): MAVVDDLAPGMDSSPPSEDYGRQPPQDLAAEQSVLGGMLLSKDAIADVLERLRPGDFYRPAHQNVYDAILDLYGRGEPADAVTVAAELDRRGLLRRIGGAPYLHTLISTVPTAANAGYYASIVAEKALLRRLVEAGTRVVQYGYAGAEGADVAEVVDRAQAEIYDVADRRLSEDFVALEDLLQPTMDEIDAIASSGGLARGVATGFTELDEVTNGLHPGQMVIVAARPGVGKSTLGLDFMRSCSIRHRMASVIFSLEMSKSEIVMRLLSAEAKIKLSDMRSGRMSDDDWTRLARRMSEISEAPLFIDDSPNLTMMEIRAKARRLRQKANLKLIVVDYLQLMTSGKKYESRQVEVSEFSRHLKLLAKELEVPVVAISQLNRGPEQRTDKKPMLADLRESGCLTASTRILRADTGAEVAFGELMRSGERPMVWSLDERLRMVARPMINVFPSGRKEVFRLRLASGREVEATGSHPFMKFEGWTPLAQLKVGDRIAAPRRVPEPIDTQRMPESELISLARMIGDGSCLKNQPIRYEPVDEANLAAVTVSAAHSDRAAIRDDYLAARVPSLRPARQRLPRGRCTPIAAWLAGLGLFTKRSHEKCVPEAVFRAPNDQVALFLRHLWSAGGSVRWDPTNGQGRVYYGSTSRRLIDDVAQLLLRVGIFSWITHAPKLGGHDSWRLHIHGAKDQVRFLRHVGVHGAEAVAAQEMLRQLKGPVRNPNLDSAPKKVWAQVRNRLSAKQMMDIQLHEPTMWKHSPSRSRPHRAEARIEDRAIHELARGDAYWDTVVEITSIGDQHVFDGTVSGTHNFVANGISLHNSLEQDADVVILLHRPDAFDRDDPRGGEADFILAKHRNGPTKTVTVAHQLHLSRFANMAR

[7] = viability of HCT116 lacking mutant beta-catenin – cell-based, human colon tumor, dose response (AID 1045); assay type: functional;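 further: HCT116 colon tumor cells with beta catenin knocked out; cells exposed to compound for 60 hours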
[8] = target: T5, Zinc finger protein mex-5 (Caenorhabditis elegans, UniProt Q9XUB2); assay: potency of MEX-5 RNA-binding blockers – biochemical, C. elegans, fluorescence polarization, dose response (AID 1960)
T5 sequence (Q9XUB2 whole entry): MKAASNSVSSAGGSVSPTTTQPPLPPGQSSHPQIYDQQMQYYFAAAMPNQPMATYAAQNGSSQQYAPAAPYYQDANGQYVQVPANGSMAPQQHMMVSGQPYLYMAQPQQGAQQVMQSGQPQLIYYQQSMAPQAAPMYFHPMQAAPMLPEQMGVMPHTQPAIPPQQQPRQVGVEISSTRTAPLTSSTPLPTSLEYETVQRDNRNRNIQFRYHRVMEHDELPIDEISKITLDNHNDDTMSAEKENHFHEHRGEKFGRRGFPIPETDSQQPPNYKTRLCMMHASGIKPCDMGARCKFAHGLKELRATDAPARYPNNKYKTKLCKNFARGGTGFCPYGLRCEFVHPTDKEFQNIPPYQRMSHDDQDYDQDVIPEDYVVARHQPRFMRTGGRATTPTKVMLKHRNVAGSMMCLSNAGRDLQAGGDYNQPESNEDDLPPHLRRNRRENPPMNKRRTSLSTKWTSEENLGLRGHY

[9] = target: T6, RNA-binding protein pos-1 (Caenorhabditis elegans, UniProt G5EF15); assay: disruptors of C. elegans POS-1 RNA interaction – biochemical, fluorescence polarization, dose response (AID 1964);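 further: purified POS-1 fused to maltose binding protein made in E. coli; potency of compounds blocking POS-1 binding to fluorescent RNA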
T6 sequence (G5EF15 whole entry): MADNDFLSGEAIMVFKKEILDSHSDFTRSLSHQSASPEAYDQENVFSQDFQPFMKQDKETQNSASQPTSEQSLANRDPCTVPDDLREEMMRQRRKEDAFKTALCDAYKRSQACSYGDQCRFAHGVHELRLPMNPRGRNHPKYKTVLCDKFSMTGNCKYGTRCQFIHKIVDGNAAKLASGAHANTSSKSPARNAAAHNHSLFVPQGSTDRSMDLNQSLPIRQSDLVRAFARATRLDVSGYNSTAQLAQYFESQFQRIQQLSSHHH

Cytochrome P450 2C19 = Cytochrome P450 2C19 (Homo sapiens, UniProt P33261); assay: Cytochrome panel assay with activity outcomes. Panel member name: p450-cyp2c19 Compounds with AC50 equal or less than 10 uM are considered active; assay type: functional; conditions: read-out: AC50
Chain of Cytochrome P450 2C19 (P33261 whole entry): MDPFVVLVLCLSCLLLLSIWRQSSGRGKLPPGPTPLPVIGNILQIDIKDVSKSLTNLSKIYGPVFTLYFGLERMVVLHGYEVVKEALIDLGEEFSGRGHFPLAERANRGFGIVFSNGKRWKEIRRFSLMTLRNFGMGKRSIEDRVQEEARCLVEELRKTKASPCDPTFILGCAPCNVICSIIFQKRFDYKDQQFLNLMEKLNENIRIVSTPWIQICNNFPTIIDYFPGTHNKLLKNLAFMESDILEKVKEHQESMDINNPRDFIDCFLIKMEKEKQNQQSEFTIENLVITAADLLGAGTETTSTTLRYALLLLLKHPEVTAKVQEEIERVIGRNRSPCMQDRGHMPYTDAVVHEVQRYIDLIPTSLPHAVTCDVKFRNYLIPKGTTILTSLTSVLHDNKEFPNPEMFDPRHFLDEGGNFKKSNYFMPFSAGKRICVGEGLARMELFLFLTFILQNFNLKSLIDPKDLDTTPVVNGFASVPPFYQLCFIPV

[10] = target: Induced myeloid leukemia cell differentiation protein Mcl-1 (Homo sapiens, UniProt Q07820); assay type: functional
Chain of Induced myeloid leukemia cell differentiation protein Mcl-1 (Q07820 whole entry): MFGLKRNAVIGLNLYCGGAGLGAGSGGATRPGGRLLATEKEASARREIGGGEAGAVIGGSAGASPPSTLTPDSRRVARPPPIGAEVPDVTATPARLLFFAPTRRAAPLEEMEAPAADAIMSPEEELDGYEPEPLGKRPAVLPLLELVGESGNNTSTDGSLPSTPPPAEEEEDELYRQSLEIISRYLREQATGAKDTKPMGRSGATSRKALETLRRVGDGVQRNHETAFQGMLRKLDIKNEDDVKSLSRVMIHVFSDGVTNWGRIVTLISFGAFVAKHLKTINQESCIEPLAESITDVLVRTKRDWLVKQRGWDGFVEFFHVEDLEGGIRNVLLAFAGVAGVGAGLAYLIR

Chain of Glyceraldehyde-3-phosphate dehydrogenase (P04406 whole entry): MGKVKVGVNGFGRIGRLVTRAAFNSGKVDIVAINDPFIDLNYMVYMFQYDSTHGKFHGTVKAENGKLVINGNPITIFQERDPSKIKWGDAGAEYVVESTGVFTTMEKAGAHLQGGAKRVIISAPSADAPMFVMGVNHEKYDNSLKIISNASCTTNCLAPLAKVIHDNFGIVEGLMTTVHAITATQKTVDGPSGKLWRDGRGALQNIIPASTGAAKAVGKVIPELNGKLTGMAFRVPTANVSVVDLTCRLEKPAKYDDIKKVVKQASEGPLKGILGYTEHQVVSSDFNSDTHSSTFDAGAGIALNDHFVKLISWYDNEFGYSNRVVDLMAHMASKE
Chain of Large T antigen (P03070 whole entry): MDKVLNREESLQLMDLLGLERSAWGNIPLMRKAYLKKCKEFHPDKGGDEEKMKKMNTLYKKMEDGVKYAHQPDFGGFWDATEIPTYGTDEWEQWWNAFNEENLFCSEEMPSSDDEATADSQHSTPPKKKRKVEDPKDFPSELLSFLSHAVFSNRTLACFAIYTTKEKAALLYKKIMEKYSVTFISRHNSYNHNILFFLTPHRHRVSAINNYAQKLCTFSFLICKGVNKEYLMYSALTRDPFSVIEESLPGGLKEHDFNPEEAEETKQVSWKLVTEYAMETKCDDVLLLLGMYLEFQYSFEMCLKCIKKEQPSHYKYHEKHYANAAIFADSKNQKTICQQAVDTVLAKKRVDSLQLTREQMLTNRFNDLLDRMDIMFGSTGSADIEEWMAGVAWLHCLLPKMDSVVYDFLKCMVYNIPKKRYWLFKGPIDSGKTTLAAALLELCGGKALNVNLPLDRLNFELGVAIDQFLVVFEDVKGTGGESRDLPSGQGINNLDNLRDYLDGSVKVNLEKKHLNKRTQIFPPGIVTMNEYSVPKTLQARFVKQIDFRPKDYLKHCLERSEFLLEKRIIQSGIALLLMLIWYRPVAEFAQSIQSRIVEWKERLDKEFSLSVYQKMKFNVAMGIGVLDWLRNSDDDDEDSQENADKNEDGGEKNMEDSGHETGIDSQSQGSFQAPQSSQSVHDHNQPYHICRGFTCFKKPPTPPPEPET

In the case of `O=C(O)/C=C/C(=O)Nc1ccc2c(c1)C(=O)c1ccccc1C2=O`, the IC50 [1] is reported as > 100 µM (not active).

With `Cc1ccc(C(=O)C2CCN(CC(=O)Nc3ccc(N(C)C)cc3)CC2)cc1` the IC50 (Large T antigen) was 14.5 µM (active).

For `COc1ccc(N2CCN(C3=C(Cl)C(=O)N(c4ccnc(Cl)c4)C3=O)CC2)cc1`, the IC50 [1] was > 50 µM (inconclusive).

For `NC(=NOC(=O)CSc1ccccc1)c1ccc([N+](=O)[O-])cc1`, the EC50 (H4) was > 120 µM (not active), the EC50 [2] was 11.5 µM (active) and the IC50 [3] was > 66 µM (inactive). The EC50 [4] was 9.44 µM (active) and the IC50 [5] was > 66 µM (inactive).

In the case of `O=C(NCc1ccco1)C(=O)c1cn(CC(=O)N2CCCC2)c2ccccc12`, the IC50 (Leucine aminopeptidase) is reported as 73.3 µM (active).

For `O=C1c2c(O)cc(O)cc2O[C@H](c2ccc(O)c(O)c2)[C@H]1O` [(+)-TAXIFOLIN], the IC50 (Large T antigen) was 32 µM (active).

With `CCCc1n[nH]c2c1C(CCc1ccccc1)C(C#N)=C(N)O2` (stereo not given) the EC50 (Protein RecA) was 7.93 µM (active), the AC50 [6] was 6.33 µM (active) and the IC50 (Leucine aminopeptidase) was 55.7 µM (active).

In the case of `Cc1ccc(C)c(NC(=O)CSc2ncnc3nc[nH]c23)c1`, the IC50 (Leucine aminopeptidase) is reported as 50.8 µM (active).

For `N#CC1=C2SCN(Cc3ccco3)CN2C(=O)CC1c1ccc(Cl)cc1` (stereo not given), the IC50 (Large T antigen) was > 100 µM (active).

In the case of `Cc1ccc(Nc2cnn(C34CC5CC(CC(CC(=O)O)(C5)C3)C4)c(=O)c2Cl)c(Cl)c1`, the IC50 (Leucine aminopeptidase) is reported as 24.4 µM (active).

For `Cc1ccc(NC(=O)Cn2nc(C)c3ccccc3c2=O)cc1F`, the IC50 (Leucine aminopeptidase) was 14 µM (active).

With `Cc1cc(NC(=O)CN2CCN(c3ccc(O)cc3)CC2)no1` the EC50 [7] was 31.9 µM (active) and the IC50 (Large T antigen) was 9.24 µM (active).

For `O=C(CSC1=NCCS1)Nc1nc2ccccc2s1`, the EC50 (H4) was 9.16 µM (active), the EC50 [2] was 15 µM (active) and the IC50 [3] was > 66 µM (inactive). The EC50 [4] was 12.5 µM (active) and the IC50 [5] was > 66 µM (inactive).

For `COc1cccc(C(=O)Nc2ccc3c(c2)n(C)c(=O)n3C)c1`, the IC50 (Large T antigen) was > 100 µM (active).

With `CC(C)Sc1nc(-c2ccccc2)cc(=O)[nH]1` the IC50 (Leucine aminopeptidase) was 28.3 µM (active).

For `COc1cc(NS(=O)(=O)c2ccc(NC(=O)CSC3=NCCS3)cc2)nc(OC)n1`, the IC50 (Leucine aminopeptidase) was 2.12 µM (active).

For `CCc1c(O)nc(SCC(=O)Nc2ccccc2)n(C(C)CC)c1=O` (stereo not given), the IC50 [3] was > 66 µM (inactive), the IC50 [5] was > 66 µM (inactive) and the IC50 (Leucine aminopeptidase) was 17.8 µM (active).

For `COc1ccc(N2CCN(C3=C(Cl)C(=O)N(c4ccc(C(F)(F)F)cc4)C3=O)CC2)cc1`, the IC50 [1] was > 12.5 µM (inconclusive).

With `O=C(O)c1cccc(Cn2c(Cl)c(/C=N/NC(=O)c3ccccc3)sc2=O)c1` the IC50 (Leucine aminopeptidase) was 20.8 µM (active).

For `COc1ccc(C2C(C#N)=C(N)OC3=C2C(=O)CC(C)(C)C3)c([N+](=O)[O-])c1OC` (stereo not given), the EC50 [8] was > 300 µM (not active), the EC50 [9] was > 300 µM (not active) and the AC50 (Cytochrome P450 2C19) was 14.1 µM (inconclusive). The IC50 [3] was > 66 µM (inactive) and the IC50 [5] was > 66 µM (inactive).

For `NC(=O)N/N=C/c1c(Sc2nnnn2-c2ccccc2)nc2ccccn2c1=O`, the IC50 (Large T antigen) was 60.5 µM (active).

With `Cc1nc(N)sc1-c1csc(Nc2ncccn2)n1` the IC50 [10] was 3.69 µM (active).

With `O=C(O)CN1C(=O)S/C(=C\c2ccc(O)cc2)C1=O` the IC50 [1] was > 100 µM (not active).
